# Experimental data taken from publication PMC11096368, “Transcriptomic signature, bioactivity and safety of a non-hepatotoxic analgesic generating AM404 in the midbrain PAG region” (Scientific Reports, 2024).
# Where “and” joins values, the source holds several entries; their conditions need not be identical. Equal values may be shown once. Entries after “also recorded” stand apart in the source; their conditions may differ. Read-outs that look alike come from different tables or passages of the source.
# Legend:
# [1] = Phase 1 single ascending dose (SAD) pharmacokinetics incl. food effect; format: in vivo, human; conditions: for Tmax (h) / Tmax: N 6; for AUC(0-t) / AUC(0-inf) / Cmax / half-life / Tmax: human, plasma; for AUC(0-t) / AUC(0-inf) / Cmax / half-life: oral; for Tmax: po
# Description: A randomized, double-blind, placebo-controlled Phase 1 trial (ClinicalTrials.gov identifier: NCT05484414) (02/08/2022) was conducted to assess the safety, tolerability, food effect, pharmacokinetics (PK), and pharmacodynamics (PD) of single and multiple ascending doses of SRP-001 (Quotient Sciences, Miami FL USA; Fig. 3h - k and Methods). The trial was conducted in accordance with the International Council for Harmonisation of Technical Requirements for Pharmaceuticals for Human Use (ICH), Guideline for GCP: Consolidated Guidance (E6), attained Institutional Review Board approval, and all applicable regulatory requirements for Phase 1, First in Human clinical trials. Safety measurements and plasma samples to determine PK parameters were collected throughout the study for all subjects and reviewed by the Safety Review Committee. PK stopping criteria were established to assure that systemic exposure to SRP-001 was less than or equal to the systemic exposure achieved at the NOAEL doses in the 28-day repeat-dose toxicology studies in the rat and dog. The trial’s Safety Advisory Committee has approved the publication of the Phase 1 results.
# SRP-001 was administered as an oral nanosuspension to 56 healthy volunteers across five Single Ascending Dose (SAD) and two Multiple Ascending Dose (MAD) cohorts, with 42 subjects receiving SRP-001 and 14 receiving a placebo.
# A two-part randomized, double-blind, placebo-controlled Phase 1 trial was conducted to assess the safety, tolerability, PK and PD of SRP-001 ascending doses (Quotient Sciences, Miami, FL, USA). The study was conducted in accordance with the International Council for Harmonisation of Technical Requirements for Pharmaceuticals for Human Use (ICH), Guideline for GCP: Consolidated Guidance (E6), and applicable regulatory requirements(s) including clinical research guidelines established by the Basic Principles defined in the U.S. 21 CFR Parts 50, 56, and 312 and the principles enunciated in the Declaration of Helsinki (revised version Fortaleza 2013). The clinical protocol and informed consent form were reviewed and approved by an Institutional Review Board (IRB; Advarra IRB, 6100 Merriweather Drive, Suite 600, Columbia, MD 21,044; Quotient Protocol No. SRP-101 and Quotient Sciences Study No. QSC205130; Quotient Sciences Miami, 3898 NW 7th Street, Miami, FL 33,126.). The study comprises a SAD (Part 1) assessment that includes a food effect assessment that contributes data to inform a subsequent MAD (Part 2) dose-ranging study. Safety measurements were collected throughout the study for all subjects. Blood samples were collected to determine the PK parameters of SRP-001 (ClinicalTrials.gov identifier: NCT05484414) (02/08/2022).
# NHVs were dosed in the fasted state. The calorie/fat content of meals was not required to be controlled. Subjects were provided with a standardized menu. Subjects were provided with a light snack and then fasted from all food and drink (except water) for a minimum of 10 h on the day prior to dosing until approximately 4 h post-dose, at which time lunch was provided. An evening meal was provided at approximately 10 h post-dose/post-morning dose and an evening snack at approximately 14 h post-morning dose. Food effect was studied in the cohort receiving 900 mg SRP-001 in the fed state. A standard high-fat breakfast was given 30 min before dosing. On Day -1, these NHVs were provided with a light snack and fasted from all food and drink (except water) until the following morning, when they were provided with a standard high-fat breakfast. The breakfast had to be consumed over a maximum period of 25 min, with dosing occurring 30 min after the start of breakfast. Subjects were encouraged to eat their meal evenly over the 25 min period. It was acknowledged that some subjects took less time to eat, but dosing still occurred 30 min after the start of breakfast. Subjects had to consume at least 90% to be eligible for dosing. […]
# [2] = tested on: Peripheral blood reticulocytes; assay: In vivo mammalian micronucleus assay; parameters: species or system rats
# Description: Male rats were dosed at 500, 1000, and 2000 mg/kg/d once per day on two consecutive days at 10 mL/kg via oral gavage using 10% labrasol, 10% DMSO, and 80% PEG400 as the vehicle (Bioreliance, Rockville, MD USA). Approximately 48 h after the second dose administration, peripheral blood was collected for flow cytometric analysis of micronuclei. There was no significant increase in the incidence of micronuclei in the test article-dosed animals compared to the concurrent vehicle control. The vehicle control value was compatible with the historical range of % micronucleated reticulocytes (MnRETs). There was a statistically significant increase in MnRETs in the positive control compared to the concurrent vehicle control.
# CD-1 male mice = conditions: for Mortality by 72 h: oral gavage, n = 10
# Description: This analysis was critical for robustly comparing their toxic effects, with a particular focus on mortality at equivalent molar concentrations.
# CD-1 male mice obtained from Charles River Laboratories underwent a one-week acclimation period. They were housed under a 12-h day/night cycle, with unrestricted access to food and water. Before experimentation, mice were fasted for 15 h. […] Each treatment group consisted of 10 mice. Post-dosing, the mice were monitored at 6-h intervals over 72 h for signs of becoming moribund. An investigator blinded to the treatment groups conducted the moribund state assessment.
# [3] = 300 mg, Cohort 1, Regimen A, Fasted, geometric mean (geometric CV%)
# [4] = 600 mg, Cohort 2, Regimen B, Fasted, geometric mean (geometric CV%)
# [5] = 900 mg, Cohort 3, Regimen C, Fasted, geometric mean (geometric CV%)
# [6] = 900 mg, Cohort 3, Regimen D, Fed, geometric mean (geometric CV%)
# [7] = 2000 mg, Cohort 4, Regimen E, Fasted, geometric mean (geometric CV%)
# [8] = relative bioavailability, Cohort 4, Regimen E, text b207 under 900 mg fed state
smiles,measurement,setting,value
"CCN(CC)C(=O)c1ccccc1S(=O)(=O)NCC(=O)Nc1ccc(O)cc1 [SRP-001, N,N-diethyl-2-[[2-(4-hydroxyanilino)-2-oxo-ethyl]sulfamoyl]benzamide]",Geometric mean AUC(0–24) as share of the exposure limits defined in the protocol,"[1]; 2000 mg, fasted",31%
same,Geometric mean Cmax as share of the exposure limits defined in the protocol,"[1]; 2000 mg, fasted",34%
same,Dose proportionality of geometric mean Cmax and AUC(0-∞),[1]; 300 to 2000 mg,dose-proportional or super-proportional increase
same,T1/2 (h),"[1]; Cohort 1, Regimen A, 300 mg, Fasted, geometric mean (geometric CV%)",2.38 (65.9) h
same,Tmax (h),"[1]; Cohort 2, Regimen B, 600 mg oral suspension, Fasted",1 (1.00–2.00) h
same,T1/2 (h),"[1]; Cohort 2, Regimen B, 600 mg, Fasted, geometric mean (geometric CV%)",5.04 (107.8) h
same,Tmax (h),"[1]; Cohort 3, Period 2: Regimen D, 900 mg oral suspension, Fed",1 (1.00–8.00) h
same,T1/2 (h),"[1]; Cohort 3, Regimen C, 900 mg, Fasted, geometric mean (geometric CV%)",3.26 (62.1) h
same,T1/2 (h),"[1]; Cohort 3, Regimen D, 900 mg, Fed, geometric mean (geometric CV%)",3.79 (74.5) h
same,Tmax (h),"[1]; Cohort 4, Regimen E, 2000 mg oral suspension, Fasted",1 (1.00–2.00) h
same,T1/2 (h),"[1]; Cohort 4, Regimen E, 2000 mg, Fasted, geometric mean (geometric CV%)",5.96 (65.9) h
same,Increase of geometric mean AUC(0–24),[1]; dose from 300 to 600 mg,3.5 fold
same,Increase of geometric mean Cmax,[1]; dose from 300 to 600 mg,2.6 fold
same,Increase of geometric mean AUC(0–24),[1]; dose from 600 to 900 mg,1.2 fold
same,Increase of geometric mean Cmax,[1]; dose from 600 to 900 mg,1.6 fold
same,Increase of geometric mean Cmax,[1]; dose from 900 to 2000 mg (2.2-fold increase in dose),1.7 fold
same,AUC(0-t),"[1]; 300 mg, Cohort 1, Regimen A, 300 mg, Fasted, geometric mean (geometric CV%), read-out: AUC0-24",1620 ng·h/mL
same,AUC(0-t),"[1]; 300 mg, Cohort 1, Regimen A, 300 mg, Fasted, geometric mean (geometric CV%), read-out: AUC0-last",1320 ng·h/mL
same,AUC(0-inf),[1]; [3],1630 ng·h/mL
same,Cmax,[1]; [3],665 ng/mL
same,half-life,[1]; [3],2.4 h
same,AUC(0-t),"[1]; 300 mg, fasted, geometric mean, read-out: AUC(0–48)",1630 ng·h/mL
same,AUC(0-t),"[1]; 600 mg, Cohort 2, Regimen B, 600 mg, Fasted, geometric mean (geometric CV%), read-out: AUC0-24",5660 ng·h/mL
same,AUC(0-t),"[1]; 600 mg, Cohort 2, Regimen B, 600 mg, Fasted, geometric mean (geometric CV%), read-out: AUC0-last",4940 ng·h/mL
same,AUC(0-inf),[1]; [4],5840 ng·h/mL
same,Cmax,[1]; [4],1740 ng/mL
same,half-life,[1]; [4],5 h
same,AUC(0-t),"[1]; 900 mg, Cohort 3, Regimen C, 900 mg, Fasted, geometric mean (geometric CV%), read-out: AUC0-24",6870 ng·h/mL
same,AUC(0-t),"[1]; 900 mg, Cohort 3, Regimen C, 900 mg, Fasted, geometric mean (geometric CV%), read-out: AUC0-last",6810 ng·h/mL
same,AUC(0-inf),[1]; [5],6970 ng·h/mL
same,Cmax,[1]; [5],2700 ng/mL
same,half-life,[1]; [5],3.3 h
same,AUC(0-t),"[1]; 900 mg, Cohort 3, Regimen D, 900 mg, Fed, geometric mean (geometric CV%), read-out: AUC0-24",6250 ng·h/mL
same,AUC(0-t),"[1]; 900 mg, Cohort 3, Regimen D, 900 mg, Fed, geometric mean (geometric CV%), read-out: AUC0-last",6130 ng·h/mL
same,AUC(0-inf),[1]; [6],5910 ng·h/mL
same,Cmax,[1]; [6],1200 ng/mL
same,half-life,[1]; [6],3.8 h
same,AUC(0-t),"[1]; 2000 mg, Cohort 4, Regimen E, 2000 mg, Fasted, geometric mean (geometric CV%), read-out: AUC0-24",18900 ng·h/mL
same,AUC(0-t),"[1]; 2000 mg, Cohort 4, Regimen E, 2000 mg, Fasted, geometric mean (geometric CV%), read-out: AUC0-last",19100 ng·h/mL
same,AUC(0-inf),[1]; [7],19600 ng·h/mL
same,Cmax,[1]; [7],4590 ng/mL
same,half-life,[1]; [7],6 h
same,Tmax,"[1]; 300 mg, Cohort 1, Regimen A, 300 mg oral suspension, Fasted",1 h
same,Tmax,"[1]; 600 mg, Cohort 2, Regimen B, 600 mg oral suspension, Fasted",1 to 2 h
same,Tmax,"[1]; 900 mg, Cohort 3, Period 1: Regimen C, 900 mg oral suspension, Fasted",1 h
same,Tmax,"[1]; 900 mg, Cohort 3, Period 2: Regimen D, 900 mg oral suspension, Fed",1 to 8 h
same,Tmax,"[1]; 2000 mg, Cohort 4, Regimen E, 2000 mg oral suspension, Fasted",1 to 2 h
same,Frel AUC(0- last) (%),[1]; [8],98.4% and 98.4a (16.3) %
same,Frel AUC(0-inf) (%),[1]; [8],101% and 101a (20.3) %
same,Frel AUC(0–24) (%),[1]; [8],99.2% and 99.2a (19.0) %
same,Frel Cmax (%),[1]; [8],48.4% and 48.4a (21.9) %
same,Micronucleus assay result,"[2]; 500, 1000, 2000 mg/kg/day, 2 days, oral gavage","negative (non-clastogenic); also recorded: Under the conditions of this study, the administration of SRP-001 at doses up to and including a dose of 2000 mg/kg/day was concluded to be negative in the Micronucleus assay"
same,% RETs (reticulocytes),[2]; treatment groups versus vehicle,Statistically significant decreases
"CC(=O)Nc1ccc(O)cc1 [ApAP, acetaminophen, reference compound]",Mortality by 72 h,CD-1 male mice; 1984 (ApAP 300 mg/kg),1/10
same,Mortality by 72 h,CD-1 male mice; 3969 (ApAP 600 mg/kg),3/10
same,Mortality by 72 h,CD-1 male mice; 5954 (ApAP 900 mg/kg),7/10
same,Mortality within 72 h,"CD-1 male mice; increasing equimolar doses, highest mortality reached",70%
